# Results as given in the supplement of paper PMC10307832.
# Assays:
# Test in all cases: relative viability (nuclei count vs DMSO), 5 days (fraction); higher = more cells survive
# [1] = system: NCI-H1975
# Outline: (§1)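 Five library-drug doses in √10 steps were combined with a fixed anchor-drug dose, or a single drug was given alone, by pin tool to lung cancer cell lines in 1536-well plates the day after seeding. Nuclei were stained and counted after 5 days. Relative viability is the nuclei count in treated wells over that in vehicle wells, taken as the median of duplicate plates.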
# [2] = system: LCLC-97TM1
# Outline: as §1
# [3] = system: NCI-H2170
# Outline: as §1
# [4] = system: EPLC-272H
# Outline: as §1
# [5] = system: UMC-11
# Outline: as §1
# [6] = system: NCI-H1944
# Outline: as §1
# [7] = system: NCI-H2342
# Outline: as §1
# [8] = system: LC-2-ad
# Outline: as §1
# [9] = system: SW 900
# Outline: as §1
# [10] = system: NCI-H460
# Outline: as §1
# [11] = system: NCI-H1915
# Outline: as §1
# [12] = system: HCC-366
# Outline: as §1
# [13] = system: NCI-H2085
# Outline: as §1
# [14] = system: NCI-H1755
# Outline: as §1
# [15] = system: NCI-H1793
# Outline: as §1
# [16] = system: SK-LU-1
# Outline: as §1
# [17] = system: LXF-289
# Outline: as §1
# [18] = system: A-427
# Outline: as §1
# [19] = system: HOP-62
# Outline: as §1
# [20] = system: HCC-78
# Outline: as §1
# [21] = system: NCI-H1792
# Outline: as §1
# [22] = system: COR-L 105
# Outline: as §1
# [23] = system: LU99A
# Outline: as §1
# [24] = system: NCI-H358
# Outline: as §1
smiles,measurement,setting,value
CC(C)Oc1cc(Nc2nc(N[C@@H](C)c3ccc(F)cn3)ncc2Cl)n[nH]1 [AZ23] + O=C(c1cc(Cc2n[nH]c(=O)c3ccccc23)ccc1F)N1CCN(C(=O)C2CC2)CC1 [Olaparib] (partner 8 µM),relative viability,[1]; first compound 0.01 µM,0.88
same,relative viability,[1]; first compound 0.03162 µM,0.904
same,relative viability,[1]; first compound 0.3162 µM,0.822
same,relative viability,[2]; first compound 0.01 µM,0.299
same,relative viability,[2]; first compound 0.03162 µM,0.526
same,relative viability,[2]; first compound 0.3162 µM,0.416
same,relative viability,[3]; first compound 0.01 µM,0.649
same,relative viability,[3]; first compound 0.03162 µM,0.658
same,relative viability,[3]; first compound 0.3162 µM,0.619
same,relative viability,[4]; first compound 0.03162 µM,0.563
same,relative viability,[4]; first compound 0.3162 µM,0.901
same,relative viability,[5]; first compound 0.01 µM,0.392
same,relative viability,[5]; first compound 0.03162 µM,0.422
same,relative viability,[5]; first compound 0.3162 µM,0.372
same,relative viability,[6]; first compound 0.01 µM,0.443
same,relative viability,[6]; first compound 0.03162 µM,0.472
same,relative viability,[6]; first compound 0.3162 µM,0.448
same,relative viability,[7]; first compound 0.01 µM,0.413
same,relative viability,[7]; first compound 0.03162 µM,0.473
same,relative viability,[7]; first compound 0.3162 µM,0.399
same,relative viability,[8]; first compound 0.01 µM,0.811
same,relative viability,[8]; first compound 0.03162 µM,0.772
same,relative viability,[8]; first compound 0.3162 µM,0.824
same,relative viability,[9]; first compound 0.01 µM,0.804
same,relative viability,[9]; first compound 0.3162 µM,0.869
same,relative viability,[10]; first compound 0.01 µM,0.24
same,relative viability,[10]; first compound 0.03162 µM,0.518
same,relative viability,[10]; first compound 0.3162 µM,0.481
same,relative viability,[11]; first compound 0.01 µM,0.259
same,relative viability,[11]; first compound 0.03162 µM,0.253
same,relative viability,[11]; first compound 0.3162 µM,0.275
same,relative viability,[12]; first compound 0.01 µM,0.19
same,relative viability,[12]; first compound 0.03162 µM,0.451
same,relative viability,[12]; first compound 0.3162 µM,0.511
same,relative viability,[13]; first compound 0.01 µM,0.784
same,relative viability,[13]; first compound 0.03162 µM,0.884
same,relative viability,[13]; first compound 0.3162 µM,0.791
same,relative viability,[14]; first compound 0.01 µM,0.962
same,relative viability,[14]; first compound 0.03162 µM,0.955
same,relative viability,[14]; first compound 0.3162 µM,1
same,relative viability,[15]; first compound 0.01 µM,0.756
same,relative viability,[15]; first compound 0.03162 µM,1.1
same,relative viability,[15]; first compound 0.3162 µM,0.85
same,relative viability,[16]; first compound 0.03162 µM,0.564
same,relative viability,[16]; first compound 0.3162 µM,0.47
same,relative viability,[17]; first compound 0.01 µM,1.39
same,relative viability,[17]; first compound 0.03162 µM,1.14
same,relative viability,[17]; first compound 0.3162 µM,1.1
same,relative viability,[18]; first compound 0.01 µM,0.82
same,relative viability,[18]; first compound 0.03162 µM,0.885
same,relative viability,[18]; first compound 0.3162 µM,0.856
same,relative viability,[19]; first compound 0.03162 µM,0.477
same,relative viability,[19]; first compound 0.3162 µM,0.379
same,relative viability,[20]; first compound 0.01 µM,0.623
same,relative viability,[20]; first compound 0.03162 µM,0.834
same,relative viability,[20]; first compound 0.3162 µM,0.669
same,relative viability,[21]; first compound 0.01 µM,0.27
same,relative viability,[21]; first compound 0.03162 µM,0.594
same,relative viability,[21]; first compound 0.3162 µM,0.373
same,relative viability,[22]; first compound 0.01 µM,0.609
same,relative viability,[22]; first compound 0.03162 µM,0.819
same,relative viability,[22]; first compound 0.3162 µM,0.665
same,relative viability,[23]; first compound 0.01 µM,0.233
same,relative viability,[23]; first compound 0.03162 µM,0.237
same,relative viability,[23]; first compound 0.3162 µM,0.328
same,relative viability,[24]; first compound 0.01 µM,0.72
same,relative viability,[24]; first compound 0.03162 µM,0.667
same,relative viability,[24]; first compound 0.3162 µM,0.664
C[C@@H]1CN(CC(=O)Nc2ccc3c(c2)Cc2cccc(-c4cc(=O)cc(N5CCOCC5)o4)c2S3)C[C@H](C)O1 + CC(=O)Nc1cccc(-n2c(=O)n(C3CC3)c(=O)c3c(Nc4ccc(I)cc4F)n(C)c(=O)c(C)c32)c1 [Trametinib] (partner 0.02 µM),relative viability,[1]; first compound 0.04 µM,0.382
same,relative viability,[1]; first compound 0.1265 µM,0.377
same,relative viability,[1]; first compound 0.4 µM,0.37
same,relative viability,[1]; first compound 4 µM,0.33
same,relative viability,[2]; first compound 0.1265 µM,0.165
same,relative viability,[2]; first compound 0.4 µM,0.165
same,relative viability,[2]; first compound 4 µM,0.175
same,relative viability,[3]; first compound 0.04 µM,1.04
same,relative viability,[3]; first compound 0.1265 µM,0.931
same,relative viability,[3]; first compound 0.4 µM,0.877
same,relative viability,[3]; first compound 4 µM,0.847
same,relative viability,[4]; first compound 0.04 µM,0.281
same,relative viability,[4]; first compound 0.1265 µM,0.289
same,relative viability,[4]; first compound 0.4 µM,0.281
same,relative viability,[4]; first compound 4 µM,0.263
same,relative viability,[5]; first compound 0.04 µM,0.732
same,relative viability,[5]; first compound 0.1265 µM,0.757
same,relative viability,[5]; first compound 0.4 µM,0.868
same,relative viability,[5]; first compound 4 µM,0.65
same,relative viability,[6]; first compound 0.1265 µM,0.412
same,relative viability,[6]; first compound 0.4 µM,0.4
same,relative viability,[6]; first compound 4 µM,0.425
same,relative viability,[7]; first compound 0.04 µM,0.806
same,relative viability,[7]; first compound 0.1265 µM,0.743
same,relative viability,[7]; first compound 0.4 µM,0.818
same,relative viability,[7]; first compound 4 µM,0.721
same,relative viability,[8]; first compound 0.04 µM,0.897
same,relative viability,[8]; first compound 0.1265 µM,0.867
same,relative viability,[8]; first compound 0.4 µM,0.892
same,relative viability,[8]; first compound 4 µM,0.854
same,relative viability,[9]; first compound 0.04 µM,0.894
same,relative viability,[9]; first compound 0.1265 µM,0.696
same,relative viability,[9]; first compound 0.4 µM,0.892
same,relative viability,[9]; first compound 4 µM,0.572
same,relative viability,[10]; first compound 0.04 µM,0.155
same,relative viability,[10]; first compound 0.1265 µM,0.131
same,relative viability,[10]; first compound 0.4 µM,0.13
same,relative viability,[10]; first compound 4 µM,0.0347
same,relative viability,[11]; first compound 0.04 µM,0.299
same,relative viability,[11]; first compound 0.1265 µM,0.291
same,relative viability,[11]; first compound 0.4 µM,0.284
same,relative viability,[11]; first compound 4 µM,0.294
same,relative viability,[12]; first compound 0.04 µM,0.43
same,relative viability,[12]; first compound 0.1265 µM,0.3
same,relative viability,[12]; first compound 0.4 µM,0.244
same,relative viability,[12]; first compound 4 µM,0.181
same,relative viability,[13]; first compound 0.04 µM,0.51
same,relative viability,[13]; first compound 0.1265 µM,0.532
same,relative viability,[13]; first compound 0.4 µM,0.483
same,relative viability,[13]; first compound 4 µM,0.465
same,relative viability,[14]; first compound 0.04 µM,0.779
same,relative viability,[14]; first compound 0.1265 µM,0.737
same,relative viability,[14]; first compound 0.4 µM,0.716
same,relative viability,[14]; first compound 4 µM,0.663
same,relative viability,[15]; first compound 0.04 µM,0.349
same,relative viability,[15]; first compound 0.1265 µM,0.415
same,relative viability,[15]; first compound 0.4 µM,0.381
same,relative viability,[15]; first compound 4 µM,0.34
same,relative viability,[16]; first compound 0.04 µM,0.518
same,relative viability,[16]; first compound 0.1265 µM,0.454
same,relative viability,[16]; first compound 0.4 µM,0.477
same,relative viability,[16]; first compound 4 µM,0.447
same,relative viability,[17]; first compound 0.04 µM,0.653
same,relative viability,[17]; first compound 0.1265 µM,0.682
same,relative viability,[17]; first compound 0.4 µM,0.658
same,relative viability,[17]; first compound 4 µM,0.676
same,relative viability,[18]; first compound 0.04 µM,0.682
same,relative viability,[18]; first compound 0.1265 µM,0.755
same,relative viability,[18]; first compound 0.4 µM,0.678
same,relative viability,[18]; first compound 4 µM,0.583
same,relative viability,[19]; first compound 0.04 µM,0.4
same,relative viability,[19]; first compound 0.1265 µM,0.374
same,relative viability,[19]; first compound 0.4 µM,0.297
same,relative viability,[19]; first compound 4 µM,0.313
same,relative viability,[20]; first compound 0.04 µM,0.713
same,relative viability,[20]; first compound 0.1265 µM,0.751
same,relative viability,[20]; first compound 0.4 µM,0.859
same,relative viability,[20]; first compound 4 µM,0.711
same,relative viability,[21]; first compound 0.04 µM,0.422
same,relative viability,[21]; first compound 0.1265 µM,0.444
same,relative viability,[21]; first compound 0.4 µM,0.295
same,relative viability,[21]; first compound 4 µM,0.385
same,relative viability,[22]; first compound 0.04 µM,0.458
same,relative viability,[22]; first compound 0.1265 µM,0.412
same,relative viability,[22]; first compound 0.4 µM,0.416
same,relative viability,[22]; first compound 4 µM,0.428
same,relative viability,[23]; first compound 0.04 µM,0.508
same,relative viability,[23]; first compound 0.1265 µM,0.534
same,relative viability,[23]; first compound 0.4 µM,0.587
same,relative viability,[23]; first compound 4 µM,0.59
same,relative viability,[24]; first compound 0.04 µM,0.131
same,relative viability,[24]; first compound 0.1265 µM,0.121
same,relative viability,[24]; first compound 0.4 µM,0.12
same,relative viability,[24]; first compound 4 µM,0.112
